Measurements as given in publication PMC6211316, “Synthesis and biological evaluation of 3-arylcoumarin derivatives as potential anti-diabetic agents” (Journal of Enzyme Inhibition and Medicinal Chemistry, 2018).
Values belong to the compound of their own block, whether it stands above or below them.

How the values were obtained:
mice = test system: mice; parameters: method as in PMID 17360155; settings: cited from earlier work
[1] = DPPH free radical scavenging; settings: mean ± SD (n = 3)
Procedure: The effect of target compounds and vitamin C to scavenge the DPPH free radical was evaluated with the method described by Villano et al.[43] with slight modifications.
Two millilitres of different concentrations of the sample solution was added to 2.0 ml of DPPH solution (0.04 mg/mL), shaken and allowed to react at room temperature for 30 min. The absorbance value was measured at 517 nm with an ultraviolet-visible spectrophotometer. The blank reference cuvette contained absolute ethanol. All measurements were performed in triplicate. IC50 values were calculated. The percentage of DPPH radical scavenging rate of the target compound is calculated as follows: DPPH free radical scavenging effect (%)=[A0−(A1−A2)]/A0×100% where A0 is the absorbance of 2.0 ml DPPH solution +2.0 ml absolute ethanol; A1 is the absorbance of 2.0 ml DPPH solution +2.0 ml 3-arylcoumarins solution or standard; A2 is the absorbance of 2.0 ml 3-arylcoumarins solution or standard +2.0 ml absolute ethanol.

[2] = hydroxyl radical scavenging; settings: mean ± SD (n = 3), read-out: OH IC50 Value
Procedure: The ability of the target compounds and vitamin C to scavenge the hydroxyl radical was evaluated with method described by Ismaili et al.[29] with slight modifications. In test tube, 1.0 ml H2O2 solution (0.03%), 1.0 ml FeSO4 solution (2 mmol.L^−1), 1.0 ml salicylic acid solution (10 mmol.L^−1) and 1.0 ml of 3-arylcoumarins and standard water solution with different concentration (0.4–2.0 mg/mL) were mixed. Finally, 1.0 ml H2O2 solution (0.03%) was added to this mixture to start the reaction. Solutions were kept at 37 °C. After 30 min, the absorbance was measured at 510 nm against the reagent blank, where the distilled water was substituted for the H2O2 solution. The percentage of OH scavenging by target compounds and vitamin C was calculated the following equation: OH scavenging effect (%)=[A0−(A1−A2)]/A0×100% where A0 is the absorbance of 1.0 ml distilled water +1.0 ml H2O2 + 1.0 ml FeSO4 + 1.0 ml salicylic acid +1.0 ml H2O2; A1 is the absorbance of 1.0 ml 3-arylcoumarins or standard +1.0 ml H2O2 + 1.0 ml FeSO4 + 1.0 ml salicylic acid +1.0 ml H2O2; A2 is the absorbance of 1.0 ml 3-arylcoumarins or standard +1.0 ml H2O2 + 1.0 ml FeSO4 + 1.0 ml absolute absolute ethanol +1.0 ml H2O2.

[3] = test system: STZ-induced hyperglycemic mice; parameters: method as in PMID 20040119; settings: 100 mg/kg/day; cited from earlier work
AGEs formation = assay: In vitro inhibitory activity of AGEs formation (bovine serum albumin/glucose); assay type: biochemical; settings: mean ± SD (n = 3)
Procedure: To prepare the AGEs reaction solution, 10 mg/mL of bovine serum albumin in 50 mM PBS (pH 7.4) was added to 0.2 M glucose, and 0.02% sodium azide was added to prevent bacterial growth. The reaction mixture (3.0 ml) was then mixed with various concentrations (0.5–1000 μg/mL) of the target compounds (1.0 ml) dissolved in DMSO. After incubating at 37 °C for 14 d, the fluorescence intensity of AGE was determined by a fluorospectrophotometer (PE, USA) with excitation and emission wavelengths at 350 nm and 420 nm, respectively. All experiments were run in triplicate. Aminoguanidine hydrochloride was used as a reference compound. The inhibition rate of AGEs formation and the IC50 value of each sample were calculated according to the formula. Inhibition rate %={[(AC−AB)−(AS−ASB)]/(AC−AB)}×100% where AC is the absorbance of control group(1.0 ml glucose +1.0 ml bovine serum albumin +1.0 ml sodium azide +1.0 ml DMSO); AB is the absorbance of blank group(1.0 ml PBS +1.0 ml bovine serum albumin +1.0 ml sodium azide +1.0 ml DMSO); AS is the absorbance of sample group (1.0 ml glucose +1.0 ml bovine serum albumin +1.0 ml sodium azide +1.0 ml target compound solution or Aminoguanidine hydrochloride solution); ASB is the absorbance of sample blank group (1.0 ml PBS +1.0 ml bovine serum albumin +1.0 ml sodium azide +1.0 ml target compound solution or Aminoguanidine hydrochloride solution).

α-Glucosidase = target: T1, α-Glucosidase (Saccharomyces cerevisiae, UniProt P53341); assay: biochemical; assay type: biochemical
T1 construct: purchased Sigma Aldrich G0660-750UN
Procedure: α-Glucosidase (G0660-750UN, Sigma Aldrich) and 4-Nitrophenyl α-D-glucopyranoside (PNPG, Macklin) were dissolved in phosphate buffer (pH 6.8, 100 mM), and the test compounds were dissolved in DMSO solution. The experiment was divided into blank group, control group, sample blank group, and sample group. The reagents were loaded in 96-well plates at the dose of the table (Table 8). The solution was bathed in 37 °C water for 10 min, and then enzyme solution was added. After reaction at 37 °C for 20 min, 70 μL Na2CO3 solution ([…]) was added to stop the reaction. All experiments were run in triplicate. […] Since PNPG can produce glucose and p-Nitrophenol (PNP) under the action of α-glucosidase, PNP has the greatest absorption at 405 nm. The absorbance was determined by the microplate reader, and the inhibition rate of α-glucosidase and the IC50 value of each sample were calculated according to the formula. Inhibition rate %={[(AC−AB)−(AS−ASB)]/(AC−AB)}×100% where AC is the absorbance of control group; AB is the absorbance of blank group; AS is the absorbance of sample group; ASB is the absorbance of sample blank group.

STZ-diabetic mice = assay: Acute hypoglycemic assay in STZ-diabetic mice; assay type: in vivo; settings: STZ-diabetics mice
Procedure: Type II diabetes mellitus was induced in mice by a single intraperitoneal injection of freshly prepared STZ (Sigma Aldrich) dissolved in 0.1M citrate buffer, pH 4.5, in a volume of 110 mg/kg of bw. After 7 days of STZ administration, blood glucose levels of each mouse were determined. Mice with blood glucose levels higher than 11 mM were considered diabetic and were included in the study.
STZ-induced diabetic mice and normal mice were placed in single cages with wire-net floors and deprived of food for 12 h before experimentation but allowed free access to tap water throughout. The compounds (at the doses of 10, 30, and 100 mg/kg of bw) were suspended in 0.05% Tween-80 in saline solution. Glibenclamide (10 mg/kg of bw) was suspended in the same vehicle. The target compounds were freshly prepared immediately before experimentation and administered by the intragastrical route at the doses of 10 ml/kg of bw. Control mice received only the vehicle (0.05% Tween-80 in saline solution) by the same route. Blood glucose levels were measured at 0, 1.5, 3, 5, 7, and 9 h after drugs administration.

[4] = Oral toxicity to mice (Lorke's method); settings: both sexes, mouse, in vivo, Kunming mice, observed 14 days
Procedure: With reference to Lorke’s method, kunming mice were used as targets to estimate the oral toxicity of each compound to mice. We select compounds 11, 17, 25, 28, and 35 at concentrations of 10, 100, and 1000 mg/kg to test their oral toxicity in the first phase, and 1600, 2900, and 5000 mg/kg at the second phase.
Experiments were performed on Kunming mice (male and female half, bw range, 25–30 g). Mice were housed in a climate and light controlled room with a 12 h light/dark cycle. Twelve hours before experiments, food was withheld, but animals had free access to drinking water. The compounds were suspended in vehicle (Tween-80, 0.2% in saline). The concentrations were adjusted to orally administrate 0.2 ml/10 g of bw. Mice were treated in two phases. In the first, intragastric doses of 10, 100 and 1000 mg/kg of bw of compounds were administered. On the second, the doses were adjusted to 1600, 2900, and 5000 mg/kg of bw of compounds. In both phases, mice were observed daily in a period of 14 days for mortality, toxic effects and/or changes in behavioural pattern. At the end of the experiments, the mice were sacrificed in a CO2 chamber.

T1 sequence (P53341 whole entry): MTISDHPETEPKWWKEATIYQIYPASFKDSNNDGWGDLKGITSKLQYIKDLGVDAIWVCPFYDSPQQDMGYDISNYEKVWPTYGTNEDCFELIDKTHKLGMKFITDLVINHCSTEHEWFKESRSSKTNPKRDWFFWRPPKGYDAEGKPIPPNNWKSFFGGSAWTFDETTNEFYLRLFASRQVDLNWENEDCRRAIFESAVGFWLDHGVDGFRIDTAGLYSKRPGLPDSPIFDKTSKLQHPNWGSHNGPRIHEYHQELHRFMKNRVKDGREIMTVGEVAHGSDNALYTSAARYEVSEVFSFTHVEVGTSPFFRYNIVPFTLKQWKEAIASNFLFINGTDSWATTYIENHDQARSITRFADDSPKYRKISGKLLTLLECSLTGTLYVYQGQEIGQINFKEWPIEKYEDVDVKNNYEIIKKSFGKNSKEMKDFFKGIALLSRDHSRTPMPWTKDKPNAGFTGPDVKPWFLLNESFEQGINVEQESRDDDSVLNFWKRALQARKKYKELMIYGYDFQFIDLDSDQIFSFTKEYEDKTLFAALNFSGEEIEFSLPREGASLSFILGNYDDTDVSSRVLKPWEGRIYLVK

IC50 [1]: 19.6 ± 1.88 µM
IC50 ([1]; listed as Vitamin C): 34.9 ± 0.85 µM
IC50 [2]: 788 ± 15.7 µM
Structure (SMILES): O=C1O[C@H]([C@@H](O)CO)C(O)=C1O [Vitaminc, Vitamin C, reference compound]
protection against STZ-induced elevation in the plasma glucose levels (mice): only a marginal to moderate protection

Structure (SMILES): NCCS(=O)(=O)O [taurine]
protection against STZ-induced elevation in the plasma glucose levels (mice): only a marginal to moderate protection

Structure (SMILES): N=C(N)NN [AG, amino guanidine, reference compound]
effect on STZ-induced hyperglycemic mice [3]: no significant effect
IC50 (AGEs formation): 270 ± 7.19 µM

Structure (SMILES): O=c1oc2cc(O)cc(O)c2cc1-c1ccc(O)cc1 [Compound 28, 5,7-Dihydroxy-3-(4-hydroxyphenyl)-coumarin]
α-glucosidase inhibitory activity (in words) (α-Glucosidase; in vitro): moderate to excellent inhibitory activity
IC50 (α-Glucosidase; mean ± SD (n = 3), read-out: α-Glucosidase inhibitory activity IC50 Value): 1.37 ± 0.15 µM
IC50 [1]: 41.51 ± 0.18 µM
Blood glucose concentration (STZ-diabetic mice; 10 mg/kg of bw per os, 0h): 15.3 ± 3.8 mM
% Variation of glycemia (STZ-diabetic mice; 10 mg/kg of bw per os, 1.5h): (−3.27) %
Blood glucose concentration (STZ-diabetic mice; 10 mg/kg of bw per os, 1.5h): 14.8 ± 5.8 mM
% Variation of glycemia (STZ-diabetic mice; 10 mg/kg of bw per os, 3h): (−25.49) %
Blood glucose concentration (STZ-diabetic mice; 10 mg/kg of bw per os, 3h): 11.4 ± 4.2 mM
% Variation of glycemia (STZ-diabetic mice; 10 mg/kg of bw per os, 5h): (−41.83) %
Blood glucose concentration (STZ-diabetic mice; 10 mg/kg of bw per os, 5h): 8.9 ± 2.6 mM
% Variation of glycemia (STZ-diabetic mice; 10 mg/kg of bw per os, 7h): (−58.17) %
Blood glucose concentration (STZ-diabetic mice; 10 mg/kg of bw per os, 7h): 6.4 ± 1.6 mM
% Variation of glycemia (STZ-diabetic mice; 10 mg/kg of bw per os, 9h): (−54.25) %
Blood glucose concentration (STZ-diabetic mice; 10 mg/kg of bw per os, 9h): 7.0 ± 2.4 mM
Blood glucose concentration (STZ-diabetic mice; 30 mg/kg of bw per os, 0h): 18.2 ± 6.7 mM
% Variation of glycemia (STZ-diabetic mice; 30 mg/kg of bw per os, 1.5h): (−18.13) %
Blood glucose concentration (STZ-diabetic mice; 30 mg/kg of bw per os, 1.5h): 14.9 ± 6.6 mM
% Variation of glycemia (STZ-diabetic mice; 30 mg/kg of bw per os, 3h): (−25.82) %
Blood glucose concentration (STZ-diabetic mice; 30 mg/kg of bw per os, 3h): 13.5 ± 6.1 mM
% Variation of glycemia (STZ-diabetic mice; 30 mg/kg of bw per os, 5h): (−30.22) %
Blood glucose concentration (STZ-diabetic mice; 30 mg/kg of bw per os, 5h): 12.7 ± 6.7 mM
% Variation of glycemia (STZ-diabetic mice; 30 mg/kg of bw per os, 7h): (−43.41) %
Blood glucose concentration (STZ-diabetic mice; 30 mg/kg of bw per os, 7h): 10.3 ± 5.6 mM
% Variation of glycemia (STZ-diabetic mice; 30 mg/kg of bw per os, 9h): (−59.89) %
Blood glucose concentration (STZ-diabetic mice; 30 mg/kg of bw per os, 9h): 7.3 ± 4.5 mM
Blood glucose concentration (STZ-diabetic mice; 100 mg/kg of bw per os, 0h): 18.2 ± 4.1 mM
% Variation of glycemia (STZ-diabetic mice; 100 mg/kg of bw per os, 1.5h): (−4.95) %
Blood glucose concentration (STZ-diabetic mice; 100 mg/kg of bw per os, 1.5h): 17.3 ± 6.7 mM
% Variation of glycemia (STZ-diabetic mice; 100 mg/kg of bw per os, 3h): (−28.57) %
Blood glucose concentration (STZ-diabetic mice; 100 mg/kg of bw per os, 3h): 13.0 ± 6.6 mM
% Variation of glycemia (STZ-diabetic mice; 100 mg/kg of bw per os, 5h): (−39.56) %
Blood glucose concentration (STZ-diabetic mice; 100 mg/kg of bw per os, 5h): 11.0 ± 6.4 mM
% Variation of glycemia (STZ-diabetic mice; 100 mg/kg of bw per os, 7h): (−35.17) %
Blood glucose concentration (STZ-diabetic mice; 100 mg/kg of bw per os, 7h): 11.8 ± 6.0 mM
% Variation of glycemia (STZ-diabetic mice; 100 mg/kg of bw per os, 9h): (−43.96) %
Blood glucose concentration (STZ-diabetic mice; 100 mg/kg of bw per os, 9h): 10.2 ± 4.6 mM
IC50 [2]: > 1000 µM
LD50 at 14 days [4]: > 5000 mg/kg
